In patent US20150274777A1, “KETOAMIDE IMMUNOPROTEASOME INHIBITORS” (HOFFMANN-LA ROCHE INC., priority 2012, published 2015):
Each block holds one compound with its values, some of them ahead of it.

Legend:
[1] = target: T1, β5i (Homo sapiens, UniProt P20618+P28062); assay: Cell-Based Proteasome Activity/Selectivity Assay (Ramos cells), substrate (ANW)2Rh110; conditions: highest concentration tested 20 μM, read-out: Ic50 ramos:ac-(anw)2-r110
T1 construct: protease activity associated with the proteasome complex in cultured cells; endogenous in cells; host or cells: Ramos cells
Text: (§1) Cell-Based Proteasome Activity/Selectivity Assay
(§2) The Cell-Based Proteasome subunit activity/selectivity assay was a panel of 5 fluorogenic assays that independently measured the activity of β5c or β5i (chymotrypsin-like activity), β2c/2i (trypsin-like), and β1c or β1i (caspase-like) protease activity associated with the proteasome complex in cultured cells. Specifically, the following substrates were used for respective subunit activities: β1i: (PAL)2Rh110, β1c: (LLE)2 Rh110, β2c/2i: (KQL)2Rh110, β5c: (WLA)2Rh110, β5i: (ANW)2Rh110. The following procedure was followed:
(§3) Cell preparation: Plated 25 μl of Ramos cells (2×10^6/ml in DPBS) into half area plate (PerkinElmer Cat 6005569) to final 5×10^4 cells/well. Added 0.5 μl of 100×4-fold serial diluted test compounds or DMSO to each well. Highest concentration of compound tested was 20 μM, thus compound serial dilution started from […]. Incubated for 30 minutes at 37° C. Then equilibrated at room temperature for 15 minutes. Added 25 μl of 2× reaction mix consisting of 0.025% digitonin, 20 μM of each substrates and 0.5M sucrose in DPBS. Shaked for one minute @ 700 rpm. Incubated for 120 min at room temperature. Then read the plates with an Envision multilabel plate reader (PerkinElmer) with 500 nm excitation/519 nm emission.

[2] = target: T2, β5c (Homo sapiens, UniProt P20618+P28074); assay: Cell-Based Proteasome Activity/Selectivity Assay (Ramos cells), substrate (WLA)2Rh110; conditions: highest concentration tested 20 μM
T2 construct: protease activity associated with the proteasome complex in cultured cells; endogenous in cells; host or cells: Ramos cells
Text: as §1, §2, §3

[3] = tested on: β2c/2i; assay: Cell-Based Proteasome Activity/Selectivity Assay (Ramos cells), substrate (KQL)2Rh110; conditions: highest concentration tested 20 μM
Text: as §1, §2, §3

[4] = target: T3, β1i (Homo sapiens, UniProt P28065+P40306); assay: Cell-Based Proteasome Activity/Selectivity Assay (Ramos cells), substrate (PAL)2Rh110; conditions: highest concentration tested 20 μM
T3 construct: protease activity associated with the proteasome complex in cultured cells; endogenous in cells; host or cells: Ramos cells
Text: as §1, §2, §3

[5] = target: T4, β1c (Homo sapiens, UniProt P28072+Q99436); assay: Cell-Based Proteasome Activity/Selectivity Assay (Ramos cells), substrate (LLE)2 Rh110; conditions: highest concentration tested 20 μM
T4 construct: protease activity associated with the proteasome complex in cultured cells; endogenous in cells; host or cells: Ramos cells
Text: as §1, §2, §3

[6] = tested on: IP10 level in PBMCs stimulated with CpG Type A; assay: PBMC IP-10 Assay; type: cell-based; conditions: CpG Type A 2.5 μM
Method: PBMCs were isolated from whole blood as follows: Blood was collected in a sterile environment in heparinized tubes. Blood was diluted with an equal volume PBS/2% FCS and 30 ml of this mixture was added to ACCUSPIN tubes containing 15 ml Histopaque-1077 already centrifuged at 800 g for 30 seconds and warmed up at room temperature. The tubes were then centrifuged at 800 g for 20 minutes at room temperature with no brake. The mononuclear band, just above the polyethylene frit, was removed by Pasteur pipet. These mononuclear cells were washed three times with sterile PBS, counted, and resuspended in RPMI 1640 supplemented with 10% heat inactivated fetal calf serum, 10 mM HEPES, 1 mM sodium pyruvate, penicillin (50 U/ml), streptomycin (50 μg/ml) and glutamine (2 mM) to approximately 1.5×10^6/ml. Approximately 2×10^5 cells/well were plated in 96 well tissue culture plates (BD Falcon 353072), and preincubated 60 mi/37° C. with a titration of compounds, in a final concentration of 1% DMSO. Cells were then stimulated with CpG Type A (Invivogen, Cat #tlrl-2216; ODN 2216) at a final concentration of 2.5 μM. Cells were incubated overnight, and supernatants were removed. PBMC viability of cells remaining in the well was measured with ATPlite luminescence assay (Perkin-Elmer) per the manufacturer's instructions. Luminescence was measured on the Perkin-Elmer Envision, using the luminescence filter. IP10 level was measured with CXCL10/IP10 AlphaLISA kit (Perkin-Elmer) per the manufacturer's instructions, except halving all volumes. Fluorescence was measured on the Envision Multilabel plate reader, using the AlphaScreen standard settings.

SMILES: COc1ccc(C[C@H](NC(=O)[C@H](C)NC(=O)C2Cc3ccccc3C2)C(=O)N[C@@H](Cc2ccccc2)C(=O)C(=O)NCc2ccccc2)cc1 [Example 19, Indan-2-carboxylic acid {(S)-1-[(S)-1-((S)-1-benzyl-2-benzylcarbamoyl-2-oxo-ethylcarbamoyl)-2-(4-methoxy-phenyl)-ethylcarbamoyl]-ethyl}-amide]
- IC50 [1]: 3 nM
- IC50 [2]: 55 nM
- IC50 [3]: > 20000 nM
- IC50 [4]: 234 nM
- IC50 [5]: > 20000 nM
- EC50 [6]: 695 nM

SMILES: CC1=C(C(=O)N[C@@H](C)C(=O)N[C@@H](CCS(C)(=O)=O)C(=O)N[C@@H](Cc2ccccc2)C(=O)C(=O)NCc2ccccc2)Cc2ccccc21 [Example 20, 3-Methyl-1H-indene-2-carboxylic acid {(S)-1-[(S)-1-((S)-1-benzyl-2-benzylcarbamoyl-2-oxo-ethylcarbamoyl)-3-methanesulfonyl-propylcarbamoyl]-ethyl}-amide]
- IC50 [1]: 15 nM
- IC50 [2]: 157 nM
- IC50 [3]: > 20000 nM
- IC50 [4]: 738 nM
- IC50 [5]: > 20000 nM
- EC50 [6]: 1640 nM

SMILES: COc1ccc(C[C@H](NC(=O)[C@H](C)NC(=O)c2cc(C)on2)C(=O)N[C@@H](Cc2ccccc2)C(=O)C(=O)NCc2ccccc2)cc1 [Example 21, 5-Methyl-isoxazole-3-carboxylic acid {(S)-1-[(S)-1-((S)-1-benzyl-2-benzylcarbamoyl-2-oxo-ethylcarbamoyl)-2-(4-methoxy-phenyl)-ethylcarbamoyl]-ethyl}-amide]
- IC50 [1]: 7 nM
- IC50 [2]: 765 nM
- IC50 [3]: > 20000 nM
- IC50 [4]: 210 nM
- IC50 [5]: > 20000 nM
- EC50 [6]: 3490 nM

SMILES: COC[C@H](NC(=O)C1Cc2ccccc2C1)C(=O)N[C@@H](Cc1ccc(OC)cc1)C(=O)N[C@@H](Cc1ccccc1)C(=O)C(=O)NCc1ccccc1 [Example 23, Indan-2-carboxylic acid {(S)-1-[(S)-1-((S)-1-benzyl-2-benzylcarbamoyl-2-oxo-ethylcarbamoyl)-2-(4-methoxy-phenyl)-ethylcarbamoyl]-2-methoxy-ethyl}-amide]
- IC50 [1]: 1 nM
- IC50 [2]: 5 nM
- IC50 [3]: > 20000 nM
- IC50 [4]: 97 nM
- IC50 [5]: 7320 nM
- EC50 [6]: 356 nM

SMILES: CC(C)C[C@H](NC(=O)[C@H](C)NC(=O)C1Cc2ccccc2C1)C(=O)N[C@@H](Cc1ccccc1)C(=O)C(=O)NCc1ccccc1 [Example 24, Indan-2-carboxylic acid {(S)-1-[(S)-1-((S)-1-benzyl-2-benzylcarbamoyl-2-oxo-ethylcarbamoyl)-3-methyl-butylcarbamoyl]-ethyl}-amide]
- IC50 [1]: 5 nM
- IC50 [2]: 272 nM
- IC50 [3]: 5710 nM
- IC50 [4]: 441 nM
- IC50 [5]: 7050 nM
- EC50 [6]: 433 nM

SMILES: COc1ccc(C[C@H](NC(=O)[C@H](C)NC(=O)C2=C(C)c3ccccc3C2)C(=O)N[C@@H](Cc2ccccc2)C(=O)C(=O)NCc2ccccc2)cc1 [Example 25, 3-Methyl-1H-indene-2-carboxylic acid {(S)-1-[(S)-1-((S)-1-benzyl-2-benzylcarbamoyl-2-oxo-ethylcarbamoyl)-2-(4-methoxy-phenyl)-ethylcarbamoyl]-ethyl}-amide]
- IC50 [1]: 9 nM
- IC50 [2]: 846 nM
- IC50 [3]: > 20000 nM
- IC50 [4]: > 20000 nM
- IC50 [5]: > 20000 nM
- EC50 [6]: 1080 nM

SMILES: COc1ccc(C[C@H](NC(=O)[C@@H](NC(=O)C2Cc3ccccc3C2)C2CC2)C(=O)N[C@@H](Cc2ccccc2)C(=O)C(=O)NCc2ccccc2)cc1 [Example 26, Indan-2-carboxylic acid {(S)-[(S)-1-((S)-1-benzyl-2-benzylcarbamoyl-2-oxo-ethylcarbamoyl)-2-(4-methoxy-phenyl)-ethylcarbamoyl]-cyclopropyl-methyl}-amide]
- IC50 [1]: 4 nM
- IC50 [2]: 15 nM
- IC50 [3]: 380 nM
- IC50 [4]: 181 nM
- IC50 [5]: 2380 nM
- EC50 [6]: 203 nM

SMILES: COc1ccc(C[C@H](NC(=O)C2(NC(=O)C3Cc4ccccc4C3)CC2)C(=O)N[C@@H](Cc2ccccc2)C(=O)C(=O)NCc2ccccc2)cc1 [Example 27, Indan-2-carboxylic acid {1-[(S)-1-((S)-1-benzyl-2-benzylcarbamoyl-2-oxo-ethylcarbamoyl)-2-(4-methoxy-phenyl)-ethylcarbamoyl]-cyclopropyl}-amide]
- IC50 [1]: 40 nM
- IC50 [2]: 4520 nM
- IC50 [3]: > 20000 nM
- IC50 [4]: 5060 nM
- IC50 [5]: 12900 nM
- EC50 [6]: 4870 nM

SMILES: COc1ccc(C[C@H](NC(=O)[C@H](C)NC(=O)c2cnccn2)C(=O)N[C@@H](Cc2ccccc2)C(=O)C(=O)NCc2ccccc2)cc1 [Example 29, Pyrazine-2-carboxylic acid {(S)-1-[(S)-1-((S)-1-benzyl-2-benzylcarbamoyl-2-oxo-ethylcarbamoyl)-2-(4-methoxy-phenyl)-ethylcarbamoyl]-ethyl}-amide]
- IC50 [1]: 275 nM
- IC50 [2]: 2060 nM
- IC50 [3]: 11900 nM
- IC50 [4]: 218 nM
- IC50 [5]: 5620 nM
- EC50 [6]: 4170 nM

Further lines, with some results ahead:

- IC50 [1]: 17 nM
- IC50 [2]: 926 nM
- IC50 [3]: > 20000 nM
- IC50 [4]: 274 nM
- IC50 [5]: 18300 nM
SMILES: C[C@H](NC(=O)OCc1ccccc1)C(=O)N[C@@H](Cc1c[nH]c2ccccc12)C(=O)N[C@@H](Cc1ccccc1)C(=O)C(=O)NCc1ccccc1 [Example 16, {(S)-1-[(S)-1-((S)-1-Benzyl-2-benzylcarbamoyl-2-oxo-ethylcarbamoyl)-2-(1H-indol-3-yl)-ethylcarbamoyl]-ethyl}-carbamic acid benzyl ester]
- EC50 [6]: 1330 nM

- IC50 [1]: 7 nM
- IC50 [2]: 988 nM
- IC50 [3]: > 20000 nM
- IC50 [4]: 417 nM
- IC50 [5]: > 20000 nM
SMILES: COc1ccc(C[C@H](NC(=O)[C@H](C)NC(=O)OCc2ccccc2)C(=O)N[C@@H](Cc2ccccc2)C(=O)C(=O)NCc2ccccc2)cc1 [Example 17, {(S)-1-[(S)-1-((S)-1-Benzyl-2-benzylcarbamoyl-2-oxo-ethylcarbamoyl)-2-(4-methoxy-phenyl)-ethylcarbamoyl]-ethyl}-carbamic acid benzyl ester]
- EC50 [6]: 939 nM

- IC50 [1]: 5 nM
- IC50 [2]: 173 nM
- IC50 [3]: 7020 nM
- IC50 [4]: 441 nM
- IC50 [5]: 3280 nM
SMILES: C[C@H](NC(=O)C1Cc2ccccc2C1)C(=O)N[C@@H](Cc1c[nH]c2ccccc12)C(=O)N[C@@H](Cc1ccccc1)C(=O)C(=O)NCc1ccccc1 [Example 18, Indan-2-carboxylic acid {(S)-1-[(S)-1-((S)-1-benzyl-2-benzylcarbamoyl-2-oxo-ethylcarbamoyl)-2-(1H-indol-3-yl)-ethylcarbamoyl]-ethyl}-amide]
- EC50 [6]: 672 nM

- IC50 [1]: 124 nM
- IC50 [2]: 3300 nM
- IC50 [3]: > 20000 nM
- IC50 [4]: 1100 nM
- IC50 [5]: > 20000 nM
SMILES: C[C@H](NC(=O)CN1CCOCC1)C(=O)N[C@@H](Cc1c[nH]c2ccccc12)C(=O)N[C@@H](Cc1ccccc1)C(=O)C(=O)NCc1ccccc1 [Example 22, (S)—N-Benzyl-3-{(S)-3-(1H-indol-3-yl)-2-[(S)-2-(2-morpholin-4-yl-acetylamino)-propionylamino]-propionylamino}-2-oxo-4-phenyl-butyramide]
- EC50 [6]: 5780 nM

- IC50 [1]: 294 nM
- IC50 [2]: 5110 nM
- IC50 [3]: > 20000 nM
- IC50 [4]: 4740 nM
- IC50 [5]: > 20000 nM
SMILES: COc1ccc(C[C@H](NC(=O)C2(NC(=O)OCc3ccccc3)CC2)C(=O)N[C@@H](Cc2ccccc2)C(=O)C(=O)NCc2ccccc2)cc1 [Example 28, {1-[(S)-1-((S)-1-Benzyl-2-benzylcarbamoyl-2-oxo-ethylcarbamoyl)-2-(4-methoxy-phenyl)-ethylcarbamoyl]-cyclopropyl}-carbamic acid benzyl ester]
- EC50 [6]: 2790 nM
